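Interpolation was linear, between the two tested concentrations surrounding the appropriate level; five concentrations were tested over 48 hours in 96-well plates. GI50 is the concentration that inhibits growth by half.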 Activity calls are given as the source filed them. Rule as the data show it: active = GI50 up to about 1.1 µM and inactive = higher.
Key:
Experiment in all cases: growth of human tumour cells (NCI), 48 h
K562 = tested on: K562
MDA-MB-231 = tested on: MDA-MB-231
SF-539 = tested on: SF-539
MOLT-4 = tested on: MOLT-4
NCI-H226 = tested on: NCI-H226
MCF7 = tested on: MCF7
UO-31 = tested on: UO-31
OVCAR-5 = tested on: OVCAR-5
NCI-H460 = tested on: NCI-H460
SR = tested on: SR
U-251 = tested on: U-251
SNB-75 = tested on: SNB-75
M14 = tested on: M14
SK-OV-3 = tested on: SK-OV-3
SNB-19 = tested on: SNB-19
HT-29 = tested on: HT-29
CAKI-1 = tested on: CAKI-1
NCI-H522 = tested on: NCI-H522
SK-MEL-2 = tested on: SK-MEL-2
HCT-15 = tested on: HCT-15

SMILES | GI50 (K562) | GI50 (MDA-MB-231) | GI50 (SF-539) | GI50 (MOLT-4) | GI50 (NCI-H226) | GI50 (MCF7) | GI50 (UO-31) | GI50 (OVCAR-5) | GI50 (NCI-H460) | GI50 (SR) | GI50 (U-251) | GI50 (SNB-75) | GI50 (M14) | GI50 (SK-OV-3) | GI50 (SNB-19) | GI50 (HT-29) | GI50 (CAKI-1) | GI50 (NCI-H522) | GI50 (SK-MEL-2) | GI50 (HCT-15) [µM]
Cc1cc(C(=O)CSC(=S)SC(C)(C)C)ccc1Cl | 31.2 µM (inactive) | 19.7 µM (inactive) | 18.7 µM (inactive) | 13.8 µM (inactive) | 27 µM (inactive) | 25.6 µM (inactive) | 18.1 µM (inactive) | 21.9 µM (inactive) | 14.7 µM (inactive) | 16.9 µM (inactive) | 15.1 µM (inactive) | 18.2 µM (inactive) | 16.4 µM (inactive) | 34.1 µM (inactive) | 16 µM (inactive) | 25.1 µM (inactive) | 34.2 µM (inactive) | 14.7 µM (inactive) | 19.9 µM (inactive) | 22.3
COc1ccc(N2N=NN(C(C)C)/C2=C(/Cl)c2nnnn2-c2ccc(OC)cc2)cc1 | 3.9 µM (inactive) | 9.14 µM (inactive) | 18.8 µM (inactive) | 4.61 µM (inactive) | 20.2 µM (inactive) | 9.46 µM (inactive) | 5.97 µM (inactive) | 13.6 µM (inactive) | 18.7 µM (inactive) | 2.98 µM (inactive) | 17.5 µM (inactive) | 13 µM (inactive) | 8.81 µM (inactive) | 18.2 µM (inactive) | 16 µM (inactive) | 10.2 µM (inactive) | 1.75 µM (inactive) | 2.76 µM (inactive) | 13.4 µM (inactive) | 15.8
CC(C)/C(Cl)=N/OC(=O)Nc1ccc(Cl)c(Cl)c1 | 0.989 µM (active) | 14.9 µM (inactive) | 13.6 µM (inactive) | 2.49 µM (inactive) | 18.1 µM (inactive) | 9.93 µM (inactive) | 15.3 µM (inactive) | 16 µM (inactive) | 17 µM (inactive) | 2.49 µM (inactive) | 21.2 µM (inactive) | 19.7 µM (inactive) | 2.45 µM (inactive) | 17.1 µM (inactive) | 21.5 µM (inactive) | 5.48 µM (inactive) | 1.75 µM (inactive) | 1.58 µM (inactive) | 18.4 µM (inactive) | 2.33
CSc1ncnc2c1cnn2Cc1cn(CCCCO)nn1 | > 100 µM (inactive) | > 100 µM (inactive) | > 100 µM (inactive) | > 100 µM (inactive) | > 100 µM (inactive) | > 100 µM (inactive) | > 100 µM (inactive) | > 100 µM (inactive) | > 100 µM (inactive) | > 100 µM (inactive) | > 100 µM (inactive) | > 100 µM (inactive) | > 100 µM (inactive) | > 100 µM (inactive) | > 100 µM (inactive) | > 100 µM (inactive) | > 100 µM (inactive) | > 100 µM (inactive) | > 100 µM (inactive) | > 100
CC(C)(CO)NC1=C(Cl)C(=O)c2c(O)ccc(O)c2C1=O | 0.104 µM (active) | 1.61 µM (inactive) | 1.39 µM (inactive) | 0.568 µM (active) | 2.16 µM (inactive) | 1.33 µM (inactive) | 1.55 µM (inactive) | 1.65 µM (inactive) | 2.42 µM (inactive) | 0.267 µM (active) | 1.73 µM (inactive) | 1.31 µM (inactive) | 0.865 µM (active) | 1.57 µM (inactive) | 1.77 µM (inactive) | 1.31 µM (inactive) | 1.96 µM (inactive) | 0.316 µM (active) | 2.32 µM (inactive) | 0.557
O=C(O)c1c(CC(Cc2ccc3c(c2)CCCC3)C(=O)O)ccc2c1CCCC2 (stereo not given) | > 100 µM (inactive) | > 100 µM (inactive) | > 100 µM (inactive) | > 100 µM (inactive) | > 100 µM (inactive) | < 0.01 µM (active) | > 100 µM (inactive) | > 100 µM (inactive) | > 100 µM (inactive) | > 100 µM (inactive) | > 100 µM (inactive) | > 100 µM (inactive) | > 100 µM (inactive) | > 100 µM (inactive) | > 100 µM (inactive) | > 100 µM (inactive) | > 100 µM (inactive) | > 100 µM (inactive) | > 100 µM (inactive) | > 100
COc1cc(/C=C(\C)[N+](=O)[O-])cc(OC)c1 | 2.69 µM (inactive) | 16.7 µM (inactive) | 9.18 µM (inactive) | 2.57 µM (inactive) | > 52.5 µM (inactive) | 6.73 µM (inactive) | 15.6 µM (inactive) | 20.1 µM (inactive) | 20.2 µM (inactive) | 3.01 µM (inactive) | 17.7 µM (inactive) | 16.7 µM (inactive) | 14.8 µM (inactive) | > 100 µM (inactive) | > 40.9 µM (inactive) | 20 µM (inactive) | 14.5 µM (inactive) | 1.87 µM (inactive) | 17.2 µM (inactive) | 12.6
O=C(Nc1ccc(N=C=S)cc1Cl)c1cc(Br)cc(Br)c1O | 32.8 µM (inactive) | 21.5 µM (inactive) | 23.9 µM (inactive) | 24.2 µM (inactive) | 18.5 µM (inactive) | 31.5 µM (inactive) | 30.3 µM (inactive) | 23.7 µM (inactive) | 32.6 µM (inactive) | 28.6 µM (inactive) | 22.2 µM (inactive) | 31.1 µM (inactive) | 33.7 µM (inactive) | 42.9 µM (inactive) | 24.6 µM (inactive) | 19.8 µM (inactive) | 43.1 µM (inactive) | 31.3 µM (inactive) | 31.6 µM (inactive) | 16.4
COC(=O)c1c2c(cc3c1CC1(C3)Cc3cc4c(c(C(C)=O)c3C1)CCC4)C=CC2 (stereo not given) | 27 µM (inactive) | > 20.7 µM (inactive) | > 31.6 µM (inactive) | > 31.6 µM (inactive) | > 31.6 µM (inactive) | 22.2 µM (inactive) | 24.3 µM (inactive) | > 31.6 µM (inactive) | > 31.6 µM (inactive) | 20.8 µM (inactive) | > 31.6 µM (inactive) | 4.6 µM (inactive) | > 31.6 µM (inactive) | > 10 µM (inactive) | > 31.6 µM (inactive) | 18.7 µM (inactive) | 44.2 µM (inactive) | 27.6 µM (inactive) | > 31.6 µM (inactive) | 18.3
CC(C)(C)[Si](C)(C)OCC1OC(n2cnc3c(=O)[nH]c(N)nc32)C(O[Si](C)(C)C(C)(C)C)C1O[Si](C)(C)C(C)(C)C (stereo not given) | 1.22 µM (inactive) | 3.71 µM (inactive) | 2.17 µM (inactive) | 1.24 µM (inactive) | 2.84 µM (inactive) | 2.33 µM (inactive) | 5.11 µM (inactive) | 2.33 µM (inactive) | 1.32 µM (inactive) | 2.39 µM (inactive) | 1.78 µM (inactive) | 3.11 µM (inactive) | 1.5 µM (inactive) | 1.95 µM (inactive) | 2.29 µM (inactive) | 1.8 µM (inactive) | 10.9 µM (inactive) | 1.68 µM (inactive) | 0.176 µM (active) | > 46.9
CCOC(=O)C1(C(=O)OCC)C[C@@H](C)[C@@H](O)C1 | > 100 µM (inactive) | > 100 µM (inactive) | > 100 µM (inactive) | > 100 µM (inactive) | > 100 µM (inactive) | > 100 µM (inactive) | > 100 µM (inactive) | > 100 µM (inactive) | > 100 µM (inactive) | > 100 µM (inactive) | > 100 µM (inactive) | 75.7 µM (inactive) | > 100 µM (inactive) | > 100 µM (inactive) | > 100 µM (inactive) | > 100 µM (inactive) | > 100 µM (inactive) | > 100 µM (inactive) | > 100 µM (inactive) | > 100
O=C1CSc2nnc(CCCCCCCCc3nnc4n3NC(=O)CS4)n2N1 | 37.8 µM (inactive) | 69.3 µM (inactive) | 48.9 µM (inactive) | 31.3 µM (inactive) | > 100 µM (inactive) | 45.6 µM (inactive) | > 100 µM (inactive) | > 100 µM (inactive) | > 100 µM (inactive) | 30.8 µM (inactive) | 35.4 µM (inactive) | 32.1 µM (inactive) | > 100 µM (inactive) | > 100 µM (inactive) | 32.1 µM (inactive) | 23.1 µM (inactive) | > 100 µM (inactive) | 26.7 µM (inactive) | > 100 µM (inactive) | 37.2
N#CC(C#N)C1CN2CCC1CC2 (stereo not given) | > 100 µM (inactive) | > 100 µM (inactive) | > 100 µM (inactive) | > 100 µM (inactive) | > 100 µM (inactive) | > 100 µM (inactive) | > 100 µM (inactive) | > 100 µM (inactive) | > 100 µM (inactive) | > 100 µM (inactive) | > 100 µM (inactive) | > 100 µM (inactive) | > 100 µM (inactive) | > 100 µM (inactive) | > 100 µM (inactive) | > 100 µM (inactive) | > 100 µM (inactive) | > 100 µM (inactive) | > 100 µM (inactive) | > 100
C[C@@H](CN1CC(=O)NC(=O)C1)N1CC(=O)NC(=O)C1 [DEXRAZOXANE] | 301 µM (inactive) | 168 µM (inactive) | 332 µM (inactive) | 15.8 µM (inactive) | 101 µM (inactive) | 24.4 µM (inactive) | 354 µM (inactive) | 372 µM (inactive) | 6.67 µM (inactive) | 93.1 µM (inactive) | 228 µM (inactive) | 318 µM (inactive) | 360 µM (inactive) | 227 µM (inactive) | 279 µM (inactive) | 110 µM (inactive) | 90.6 µM (inactive) | 67.8 µM (inactive) | 246 µM (inactive) | 122
